Experimental data published in ChEMBL document CHEMBL3044877, “Synthesis and crystal structure of chalcones as well as on cytotoxicity and antibacterial properties” (Med Chem Res, 2012).
In brackets after ≈: the same amount, converted by molar mass.

What was measured:
HT-29 = test: Cytotoxicity against Homo sapiens (human) HT-29 cells after 72 hr by MTT assay; format: functional, cell-based
SGC-7901 = test: Cytotoxicity against Homo sapiens (human) SGC7901 cells after 72 hr by MTT assay; format: functional, cell-based
Enterococcus faecalis = test: Antibacterial activity against multidrug-resistant Enterococcus faecalis 609230; format: functional
[1] = tested on: Staphylococcus epidermidis; test: Antibacterial activity against multidrug-resistant Staphylococcus epidermidis 619083; format: functional
[2] = tested on: Staphylococcus epidermidis; test: Antibacterial activity against multidrug-resistant Staphylococcus epidermidis 620206; format: functional
Staphylococcus aureus [3] = test: Antibacterial activity against multidrug-resistant Staphylococcus aureus 701230; format: functional
Staphylococcus aureus [4] = test: Antibacterial activity against multidrug-resistant Staphylococcus aureus ATCC 25923; format: functional
Enterococcus faecium = test: Antibacterial activity against multidrug-resistant Enterococcus faecium 609205; format: functional
Staphylococcus aureus [5] = test: Antibacterial activity against multidrug-resistant Staphylococcus aureus 701219; format: functional
Klebsiella pneumoniae [6] = test: Antibacterial activity against multidrug-resistant Klebsiella pneumoniae 626511; format: functional
Pseudomonas aeruginosa [7] = test: Antibacterial activity against multidrug-resistant Pseudomonas aeruginosa 630266; format: functional
Escherichia coli [8] = test: Antibacterial activity against multidrug-resistant Escherichia coli 629247; format: functional
Escherichia coli [9] = test: Antibacterial activity against multidrug-resistant Escherichia coli 629119; format: functional
Acinetobacter baumannii [10] = test: Antibacterial activity against multidrug-resistant Acinetobacter baumannii B-5 302234; format: functional
Pseudomonas aeruginosa [11] = test: Antibacterial activity against multidrug-resistant Pseudomonas aeruginosa 710218; format: functional
Acinetobacter baumannii [12] = test: Antibacterial activity against multidrug-resistant Acinetobacter baumannii B-8 303211; format: functional
Klebsiella pneumoniae [13] = test: Antibacterial activity against multidrug-resistant Klebsiella pneumoniae 626238; format: functional
Staphylococcus aureus [14] = test: Antibacterial activity against Staphylococcus aureus after 24 hr; format: functional
[15] = Homo sapiens, HT-29, 72 h, read-out: IC50
[16] = Homo sapiens, SGC-7901, 72 h, read-out: IC50

`COc1ccc(C(=O)/C=C/c2ccccc2C(F)(F)F)cc1` was tested, and the IC50 (HT-29; [15]) was 36.4 µM.
Compound `COc1ccc(C(=O)/C=C/c2ccc(Cl)cc2Cl)cc1` has an IC50 (HT-29; [15]) of 18.9 µM and an IC50 (SGC-7901; [16]) of 12.6 µM.
`COc1ccc(C(=O)/C=C/c2ccc(F)cc2F)cc1` gave an IC50 (HT-29; [15]) of 11.1 µM and an IC50 (SGC-7901; [16]) of 48.4 µM.
`COc1ccc(/C=C/C(=O)c2ccccc2O)c(OC)c1` was tested, and the IC50 (HT-29; ht-29) was “Not Active” and the IC50 (SGC-7901; sgc-7901) was “Not Active”.
`COc1ccc(/C=C/C(=O)c2ccccc2)c(OC)c1` showed an IC50 (HT-29; [15]) of 131 µM.
`O=C(/C=C/c1ccccc1C(F)(F)F)c1ccccc1` gave an IC50 (HT-29; [15]) of 42.9 µM and an IC50 (SGC-7901; [16]) of 40.3 µM.
With `COc1ccc(C(=O)/C=C/c2ccccc2Cl)cc1OC` the IC50 (HT-29; [15]) was 15.5 µM and the IC50 (SGC-7901; [16]) was 24.7 µM.
With `COc1ccc(C(=O)/C=C/c2cccc(OC)c2OC)cc1` the IC50 (HT-29; [15]) was 41.7 µM and the IC50 (SGC-7901; [16]) was 13.1 µM.
`COc1ccc(C(=O)/C=C/c2ccccc2Br)cc1OC` was tested, and the IC50 (HT-29; [15]) was 14 µM and the IC50 (SGC-7901; [16]) was 21.4 µM.
For `COc1ccc(/C=C/C(=O)c2cc(F)cc(F)c2)c(OC)c1`, the IC50 (HT-29; ht-29) was “Not Active” and the IC50 (SGC-7901; [16]) was 55.5 µM.
`COc1ccc(C(=O)/C=C/c2ccccc2OC)cc1` was tested, and the IC50 (SGC-7901; sgc-7901) was “Not Active”.
For `COc1ccccc1/C=C/C(=O)c1cc(F)cc(F)c1`, the IC50 (HT-29; [15]) was 53.2 µM and the IC50 (SGC-7901; [16]) was 75.4 µM.
In the case of `Nc1ccc(C(=O)/C=C/c2ccccc2C(F)(F)F)cc1`, the IC50 (SGC-7901; [16]) is reported as 15.7 µM.
`COc1ccc(C(=O)/C=C/c2ccccc2Br)cc1` was tested, and the IC50 (HT-29; [15]) was 25.7 µM and the IC50 (SGC-7901; [16]) was 20 µM.
Compound `COc1ccc(C(=O)/C=C/c2ccc(Cl)cc2Cl)cc1OC` has an IC50 (HT-29; [15]) of 18.7 µM and an IC50 (SGC-7901; [16]) of 60.5 µM.
`COc1ccc(C(=O)/C=C/c2cccc(OC)c2OC)cc1OC` gave an IC50 (HT-29; [15]) of 35.9 µM and an IC50 (SGC-7901; [16]) of 70.7 µM.
`Nc1ccc(C(=O)/C=C/c2ccc(Cl)cc2Cl)cc1` was tested, and the IC50 (HT-29; [15]) was 40 µM and the IC50 (SGC-7901; [16]) was 87.7 µM.
Compound `O=C(/C=C/c1ccc(Cl)cc1Cl)c1ccccc1O` has an IC50 (HT-29; [15]) of 42.4 µM.
For `CN(C)c1ccc(/C=C/C(=O)c2cccc(N)c2)cc1`, the IC50 (HT-29; ht-29) was “Not Active”.
For `CN(C)c1ccc(/C=C/C(=O)c2cc(F)cc(F)c2)cc1`, the IC50 (HT-29; ht-29) was “Not Active” and the IC50 (SGC-7901; sgc-7901) was “Not Active”.
`Nc1ccc(C(=O)/C=C/c2ccccc2Cl)cc1` was tested, and the IC50 (HT-29; [15]) was 26.2 µM and the IC50 (SGC-7901; [16]) was 11.2 µM.
In the case of `COc1ccc(/C=C/C(=O)c2ccc(N)cc2)c(Cl)c1`, the MIC (Enterococcus faecalis) is reported as 537 µg/mL (≈ 1870 µM), the IC50 (HT-29; [15]) is reported as 55.7 µM and the MIC [1] is reported as over 1000 µg/mL. The MIC [2] was over 1000 µg/mL, the MIC (Staphylococcus aureus [3]) was 537 µg/mL (≈ 1870 µM) and the MIC (Staphylococcus aureus [4]) was 537 µg/mL (≈ 1870 µM). The IC50 (SGC-7901; [16]) was 20.2 µM, the MIC (Enterococcus faecium) was over 1000 µg/mL and the MIC (Staphylococcus aureus [5]) was over 1000 µg/mL.
Compound `COc1ccc(/C=C/C(=O)c2cccc(N)c2)c(Cl)c1` has an IC50 (HT-29; [15]) of 42.8 µM and an IC50 (SGC-7901; [16]) of 53.8 µM.
`COc1ccc(C(=O)/C=C/c2ccc(OC)cc2Cl)cc1` showed an IC50 (HT-29; [15]) of 49.1 µM and an IC50 (SGC-7901; [16]) of 19.2 µM.
Work on `COc1ccc(/C=C/C(=O)c2ccccc2O)c(Cl)c1` yielded an IC50 (HT-29; [15]) of 59.5 µM and an IC50 (SGC-7901; [16]) of 62.1 µM.
With `COc1ccc(/C=C/C(=O)c2cc(F)cc(F)c2)cc1` the IC50 (HT-29; [15]) was 101 µM and the IC50 (SGC-7901; sgc-7901) was “Not Active”.
`Nc1ccc(C(=O)/C=C/c2ccccc2F)cc1` gave an IC50 (HT-29; [15]) of 47.8 µM and an IC50 (SGC-7901; [16]) of 7.44 µM.
For `COc1ccc(C(=O)/C=C/c2ccc(N(C)C)cc2)cc1OC`, the IC50 (HT-29; [15]) was 49.8 µM and the IC50 (SGC-7901; sgc-7901) was “Not Active”.
`COc1ccc(C(=O)/C=C/c2ccc(O)cc2)cc1` was tested, and the MIC (Enterococcus faecalis) was 81 µg/mL (≈ 319 µM), the MIC (Klebsiella pneumoniae [6]) was over 1000 µg/mL and the IC50 (HT-29; [15]) was 18.6 µM. The MIC [1] was 20 µg/mL (≈ 78.7 µM), the MIC [2] was 81 µg/mL (≈ 319 µM) and the MIC (Pseudomonas aeruginosa [7]) was over 1000 µg/mL. The MIC (Escherichia coli [8]) was 548 µg/mL (≈ 2160 µM), the MIC (Escherichia coli [9]) was 548 µg/mL (≈ 2160 µM) and the MIC (Acinetobacter baumannii [10]) was 548 µg/mL (≈ 2160 µM). It also gave an MIC (Staphylococcus aureus [3]) of 81 µg/mL (≈ 319 µM), an MIC (Pseudomonas aeruginosa [11]) of over 1000 µg/mL and an MIC (Acinetobacter baumannii [12]) of 548 µg/mL (≈ 2160 µM). The MIC (Klebsiella pneumoniae [13]) was over 1000 µg/mL, the MIC (Staphylococcus aureus [4]) was 40 µg/mL (≈ 157 µM) and the IC50 (SGC-7901; [16]) was 14.7 µM. For the same compound, the MIC (Enterococcus faecium) was over 1000 µg/mL and the MIC (Staphylococcus aureus [5]) was 81 µg/mL (≈ 319 µM).
For `COc1ccc(/C=C/C(=O)c2ccc(OC)c(OC)c2)cc1`, the IC50 (HT-29; [15]) was 54.6 µM and the IC50 (SGC-7901; [16]) was 102 µM.
With `COc1ccc(/C=C/C(=O)c2ccc(N)cc2)c(OC)c1` the IC50 (HT-29; ht-29) was “Not Active” and the IC50 (SGC-7901; sgc-7901) was “Not Active”.
With `COc1ccc(/C=C/C(=O)c2ccc(OC)c(OC)c2)c(OC)c1` the IC50 (HT-29; [15]) was 65.5 µM and the IC50 (SGC-7901; sgc-7901) was “Not Active”.
In the case of `COc1ccc(C(=O)/C=C/c2ccccc2F)cc1`, the IC50 (HT-29; [15]) is reported as 18.9 µM and the IC50 (SGC-7901; [16]) is reported as 21.2 µM.
For `O=C(/C=C/c1ccc(O)cc1)c1ccccc1` [4-HYDROXYCHALCONE], the MIC (Enterococcus faecalis) was 158 µg/mL (≈ 705 µM), the MIC (Klebsiella pneumoniae [6]) was over 1000 µg/mL and the MIC (Staphylococcus aureus [14]) was 125 µg/mL (≈ 557 µM). It also gave an IC50 (HT-29; [15]) of 24.6 µM, an MIC [1] of 158 µg/mL (≈ 705 µM) and an MIC [2] of 158 µg/mL (≈ 705 µM). The MIC (Pseudomonas aeruginosa [7]) was over 1000 µg/mL, the MIC (Escherichia coli [8]) was 158 µg/mL (≈ 705 µM) and the MIC (Escherichia coli [9]) was 158 µg/mL (≈ 705 µM). It also gave an MIC (Acinetobacter baumannii [10]) of 158 µg/mL (≈ 705 µM), an MIC (Staphylococcus aureus [3]) of 158 µg/mL (≈ 705 µM) and an MIC (Pseudomonas aeruginosa [11]) of 158 µg/mL (≈ 705 µM). It also gave an MIC (Acinetobacter baumannii [12]) of 158 µg/mL (≈ 705 µM), an MIC (Klebsiella pneumoniae [13]) of over 1000 µg/mL and an MIC (Staphylococcus aureus [4]) of 158 µg/mL (≈ 705 µM). The IC50 (SGC-7901; [16]) was 13.7 µM, the MIC (Enterococcus faecium) was 315 µg/mL (≈ 1400 µM) and the MIC (Staphylococcus aureus [5]) was 158 µg/mL (≈ 705 µM).
`O=c1[nH]cc(F)c(=O)[nH]1` [FLUOROURACIL] was tested, and the IC50 (HT-29; [15]) was 9.72 µM and the IC50 (SGC-7901; Homo sapiens, SGC-7901, 72 h) was 29.2 µM.
`C[C@H]1COc2c(N3CCN(C)CC3)c(F)cc3c(=O)c(C(=O)O)cn1c23.C[C@H]1COc2c(N3CCN(C)CC3)c(F)cc3c(=O)c(C(=O)O)cn1c23.O` [LEVOFLOXACIN] was tested, and the MIC (Enterococcus faecalis) was over 1000 µg/mL, the MIC (Klebsiella pneumoniae [6]) was 125 µg/mL and the MIC [1] was 125 µg/mL. For the same compound, the MIC [2] was over 1000 µg/mL, the MIC (Pseudomonas aeruginosa [7]) was 325 µg/mL and the MIC (Escherichia coli [8]) was 25 µg/mL. For the same compound, the MIC (Escherichia coli [9]) was over 1000 µg/mL, the MIC (Acinetobacter baumannii [10]) was over 1000 µg/mL and the MIC (Staphylococcus aureus [3]) was 12.5 µg/mL. It also gave an MIC (Pseudomonas aeruginosa [11]) of over 1000 µg/mL, an MIC (Acinetobacter baumannii [12]) of 12.5 µg/mL and an MIC (Klebsiella pneumoniae [13]) of over 1000 µg/mL. For the same compound, the MIC (Staphylococcus aureus [4]) was 12.5 µg/mL, the MIC (Enterococcus faecium) was over 1000 µg/mL and the MIC (Staphylococcus aureus [5]) was 100 µg/mL.
